The record followed here is paper PMC9884808, “Pharmacokinetics, tissue distribution, and antitumor activity of a novel compound, NY-2, in non-small cell lung cancer” (Frontiers in Pharmacology, 2023).

Series [1] in a line: Hepatotoxicity and nephrotoxicity experiments in KM mice. It is filed as in vivo. The settings on record: for pathological changes of liver and kidney tissues (H&E): vs control; for effect on overall antioxidant capacity: T-AOC kit, ABTS method. The procedure: Animal experiments were approved by the Ethics Committee on Laboratory Animal Management of Shenyang Pharmaceutical University (Approval Document No. SYPU-SQ-001). All animals received humane care according to the local guidelines for the Care and Use of Laboratory Animals of the Shenyang Pharmaceutical University. All animals were housed under specific pathogen-free (SPF) conditions at 25°C with 50% humidity, with free access to food and water for 7 days to adapt. KM mice (male, 4–5 weeks old and weighing 18–22 g) were purchased from Liaoning Changsheng Biotechnology Co., Ltd. (Liaoning, China, animal license #SCXK-2020–0001). For the hepatotoxicity and nephrotoxicity assays, NY-2 was injected via tail vein into KM mice, and the results were used in deciding on the test dose for antitumor activity in a nude mouse cancer model. Its influence on the immune system was also determined. The treatment groups were ZLDI-8, NY-2, DMSO control, and normal saline control, with six mice in each group. The mice were fasted for 12 h before the experiment, but were allowed to drink water freely. ZLDI-8 and NY-2 were dissolved in 1% DMSO containing 1% Tween and 6 mg/kg was administered by a daily tail vein injection for seven consecutive days ([Lu et al., 2020]).
After injection of the compounds, blood was drawn and serum was collected for the determination of ALT and AST levels (Nanjing Jiancheng Bioengineering Institute, China, C009-2-1 and C010-2-1) to assess liver function. Serum creatinine (sCr, Nanjing Jiancheng Bioengineering Institute, China, C011-2-1) and blood urea nitrogen (BUN, Nanjing Jiancheng Bioengineering Institute, China, C013-2-1) were measured to assess renal function. Tumor necrosis factor-α (TNF-α, Cusabio, Wuhan, China, CSB-E04741m) and interleukin-6 (IL-6, Cusabio, Wuhan, China, CSB-E04639m) were used as markers to evaluate the immune inflammatory response, and an assay kit (T-AOC, S0119, Beyotime) was used to measure total antioxidant capacity by the ABTS method. Mice were euthanized by cervical dislocation, liver and kidney tissue was removed and fixed in formalin, dehydrated in ethanol, embedded in paraffin, and sectioned for staining with hematoxylin and eosin (H&E).
KM mice were treated with ZLDI-8 or NY-2 by tail vein injection (6 mg/kg) for 7 days, then the mice were euthanized and liver and kidney tissues were removed and sectioned. For the experiment with BALB/c nude mice, the tail vein injections of NY-2 (6 mg/kg) were continued for 28 days, and the lungs, tumor, heart, liver, and kidney were removed. Trimmed tissue samples were fixed in 4% paraformaldehyde for 24 h, dehydrated in graded ethanol solutions, embedded in paraffin and sectioned. Sections for staining were dewaxed with xylene and then rehydrated, and hematoxylin-eosin staining was performed, after which the sections were again dehydrated in ethanol and cleared with xylene before being mounted on a slide, cover-slipped and examined microscopically. The remainder of the tumors and tissues was frozen in liquid nitrogen for other studies.

Another series has as its system HCT116. As to the kind of experiment: MTT cell viability assay. It is filed as cell-based, human. The settings on record: Homo sapiens, HCT-116, HCT116 colorectal cancer cells. The procedure: The human colorectal cancer cell lines, HCT116 and LoVo, the breast cancer cell line, T47D, the hepatocellular carcinoma cell line, HepG2, the normal human liver cell line, HL7702, human umbilical vein endothelial cells (HUVECs), and the non-small cell lung cancer cell lines, A549, H1993, HCC827, H460, were purchased from the American Type Culture Collection (Manassas, VA, United States). Cell lines were cultured in the recommended RPMI-1640 medium (AE24464298, Hyclone, United States) and DMEM medium (AE29422278, Hyclone, United States) supplemented with 10% fetal bovine serum (FBS; JC63470, FB15015, Clark, United States) with 1% penicillin-streptomycin. Cells were maintained in an incubator at 37°C with 5% CO2 (HF90,Sanyo, Japan) and passaged every 48–72 h, after detaching with 0.25% trypsin (Sigma, United States). The compounds ZLDI-8 and NY-1 to -15 were synthesized in the laboratory of Dr. Huaiwei Ding in Shenyang Pharmaceutical University, and verified by high-performance liquid chromatography (purity >95%) for use in experiments (Supplementary Figure S1). Paclitaxel was purchased from MedChemExpress (HY-B0015, 99.97% purity, United States).
Cell viability was measured by the MTT assay. HCT116, HL7702, A549, H1993, HCC827, and H460 cells were dispensed into 96-well plates at a density of 1 × 10^5 cells/mL. After 24–48 h incubation, cells were treated with the compounds at different concentrations for the indicated periods. An assay kit (WLA073, Wanlei Co., Liaoning, China), was used according to the manufacturer’s instructions to measure LDH activity, The absorbance at 450 nm was measured with a microplate reader (Elx-800, Bio-Rad, China).
The preliminary antitumor activity of the series of ZLDI-8 derivatives, NY-1 to -15 was screened by the MTT cell viability assay. […] The antitumor activity of NY-2 on HCT116 cells was concentration- and time-dependent, and slightly better than that of the original compound, ZLDI-8.
Background: Formazan colour is commonly taken as a measure of viable cells.

Series [2] deals with A549 cells. Briefly: Apoptosis, annexin-V/PI double staining. It is filed as cell-based, human. The note with it: 48 h, control 0.86 ± .05%. The procedure: For the apoptosis assay, cells were seeded into 6-well plates at 1× 10^5 cells per well, and after attachment for 4–6 h, they were incubated with different concentration of NY-2 for 48 h. After washing with 1×PBS, the cells were stained with Hoechst 33342 (5 μg/mL, 1 mL per well, C1022, Beyotime Biotechnology, China) for 20 min in a 37°C incubator followed by two washes with PBS. The number of apoptotic cells was counted under an inverted fluorescence microscope (Olympus, Japan). Apoptosis was also determined using an annexin V-FITC apoptosis detection kit (ABS50001, Absin Bioscience Inc., Shanghai, China). Cells were plated in 100 mm Petri dishes at a density of 1 × 10^6 cells/dish, after 4–6 h for attachment, cells were incubated with different concentrations of NY-2 for 48 h. For each sample, cells were harvested by trypsin digestion without EDTA and washed with 1 × PBS. Cells were resuspended in 300 μL of binding buffer, and 5 μL of annexin V-FITC solution were added and incubated at room temperature in the dark for 15 min, followed by the addition of 5 μL of propidium iodide (PI) solution. The sample staining was assessed by flow cytometry (BD Co., United States).

Series [3] concerns A549 cells. Briefly: Colony formation assay. It is filed as cell-based, human. The note with it: 2.5, 5, 10 μM; 9 days of growth.
[4] abbreviates: 6 mg/kg daily tail vein injection, 7 days.

One may read the IC50 as the concentration that gives 50% inhibition. Turning to `Cc1ccc(OCCn2c(C)c(C=C3C(=O)NC(=S)NC3=O)c3ccccc32)c(C)c1` [ZLDI-8, reference compound], in series [1] (setting [4]), the “effect on IL-6 and TNF-α levels compared with the control group” value is recorded as “no significant effect”; the “pathological changes of liver and kidney tissues (H&E)” value is “no obvious pathological changes”. The “BUN compared with the control group” value in series [1] (6 mg/kg daily tail vein injection, 7 days, serum, only significant difference) is listed as “possible decrease”. For the same compound, in series [1], the “effect on overall antioxidant capacity” value is “neither ZLDI-8 nor NY-2 had any overt effect”. Besides, inhibition in the series on HCT116 was half-maximal at 7.72 µM (IC50).
Take `Cc1c(C=C2C(=O)NC(=S)NC2=O)c2ccccc2n1CCOc1ccc(F)cc1` [NY-2]: the “percentage of A549 cells in apoptosis” value with A549 cells [2] (5 μM) came to 5.45 ± 3.28%. Also, the “percentage of A549 cells in apoptosis” value in the series with A549 cells [2] (10 μM) is 20.29 ± 3.11%. For the same compound, in series [1] (setting [4]), the “effect on IL-6 and TNF-α levels compared with the control group” value was “no significant effect”; the “pathological changes of liver and kidney tissues (H&E)” value is “no obvious pathological changes”. For the same compound, the “levels of AST, ALT, sCr, and BUN compared with the control group” value in series [1] (6 mg/kg daily tail vein injection, 7 days, serum) was “no significant differences”. Further, the “effect on overall antioxidant capacity” value in series [1] is listed as “neither ZLDI-8 nor NY-2 had any overt effect”. Also, in the series with A549 cells [3], the “colony formation of A549 cells” value is listed as “inhibit colony formation of A549 cells in a concentration-dependent manner”. Also, in the series on HCT116, half-maximal inhibition (IC50) was put at 5.35 µM.
